Reference: patent publication US11584714B2 (priority 2018, dated 2023)
Read-outs that look alike come from different tables or passages of the source.

Columns and labels:
MASP-2 = MASP-2 (Homo sapiens (Human), UniProt O00187); assay: MASP-2 inhibition (Ki); format: biochemical
Thrombin = Thrombin (Homo sapiens (Human), UniProt P00734); assay: Thrombin inhibition (Ki); format: biochemical
α-chymotrypsin = α-chymotrypsin (Bos taurus (Bovine), UniProt P00766, DEL14-15/DEL147-148); conditions: cited from earlier work

MASP-2, sequence (O00187 16-686): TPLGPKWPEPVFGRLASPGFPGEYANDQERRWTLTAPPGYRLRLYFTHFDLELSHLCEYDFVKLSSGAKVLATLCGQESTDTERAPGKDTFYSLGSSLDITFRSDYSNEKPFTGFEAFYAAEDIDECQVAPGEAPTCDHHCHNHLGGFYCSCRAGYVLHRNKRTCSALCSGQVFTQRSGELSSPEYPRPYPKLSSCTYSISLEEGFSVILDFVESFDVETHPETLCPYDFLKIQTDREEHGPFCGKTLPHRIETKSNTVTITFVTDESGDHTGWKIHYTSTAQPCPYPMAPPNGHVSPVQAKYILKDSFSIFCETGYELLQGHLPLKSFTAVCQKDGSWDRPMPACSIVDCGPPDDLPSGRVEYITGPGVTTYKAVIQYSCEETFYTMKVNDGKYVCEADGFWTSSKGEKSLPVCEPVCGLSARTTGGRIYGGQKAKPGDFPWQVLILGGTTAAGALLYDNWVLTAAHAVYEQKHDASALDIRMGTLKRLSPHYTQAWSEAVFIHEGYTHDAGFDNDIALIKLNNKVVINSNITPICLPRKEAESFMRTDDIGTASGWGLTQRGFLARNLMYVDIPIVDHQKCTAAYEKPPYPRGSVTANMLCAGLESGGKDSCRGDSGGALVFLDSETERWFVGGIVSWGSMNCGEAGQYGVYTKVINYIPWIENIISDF

Molecule | Ki (MASP-2) | Thrombin Ki (μM) (Thrombin) | Ki (Thrombin) | Ki (Thrombin; read-out: Thrombin Ki) | Ki (α-chymotrypsin)
CN(C)C(=S)Nc1ccccc1C(=O)O [compound 25] | 25 to 100 µM | No activity | – | – | –
O=c1[nH]c2ccccc2c(=O)o1 [compound 26] | < 10 µM | – | 25 to 100 µM | – | –
O=C(Oc1cccc([N+](=O)[O-])c1)c1ccco1 [compound 27] | < 10 µM | – | – | 25 to 100 µM | –
O=C(O)c1ccc2c(c1)C1C=CCC1C(C(=O)O)N2 (centres unmarked) [compound 28] | 25 to 100 µM | No activity | – | – | –
O=C1NC(=S)NC(=O)C1=C/C=C/c1ccco1 [compound 29] | < 10 µM | – | – | 25 to 100 µM | –
CC(=O)c1ccc2c(c1)C1C=CCC1C(C(=O)O)N2 (centres unmarked) [compound 30] | 25 to 100 µM | No activity | – | – | –
COc1cc(/C=N/NC(=O)Cc2nnc(N)s2)ccc1OC(=O)c1ccco1 [compound 31] | < 10 µM | No activity | – | – | –
O=C(c1cccc2ccccc12)n1cccn1 [compound 32] | < 10 µM | No activity | – | – | –
CC(=O)Nc1ccc(OC(=O)c2ccccc2NC(=O)c2ccccc2Br)cc1 [compound 33] | < 10 µM | – | – | < 10 µM | –
Cc1c(/N=C/c2ccc(OC(=O)c3ccco3)cc2)c(=O)n(-c2ccccc2)n1C [compound 34] | < 10 µM | – | – | 25 to 100 µM | –
O=C(Nc1nc[nH]n1)c1cccc(I)c1 [compound 36] | < 10 µM | – | – | 25 to 100 µM | –
C/C=C/C=C/C(=O)Nc1ccccc1C(=O)O [compound 37] | 25 to 100 µM | No activity | – | – | –
Cc1ccc(S(=O)(=O)n2nc(OC(=O)c3ccco3)cc2N)cc1 [compound 39] | < 10 µM | – | – | 10 to 25 µM | –
COc1ccc(S(=O)(=O)n2nc(OC(=O)c3ccco3)cc2N)cc1 [compound 40] | < 10 µM | – | – | < 10 µM | –
CC(=O)c1ccc(OC(=O)c2ccco2)cc1 [compound 41] | < 10 µM | No activity | – | – | –
Cc1sc2nc(-c3ccccc3F)oc(=O)c2c1C [compound 42] | < 10 µM | – | – | 25 to 100 µM | –
CCc1cc2c(=O)oc(-c3ccccc3C)nc2s1 [compound 43] | < 10 µM | – | – | 25 to 100 µM | –
Nc1cc(OC(=O)c2ccco2)nn1S(=O)(=O)c1ccc(F)cc1 [compound 44] | < 10 µM | – | – | 25 to 100 µM | –
N#Cc1ccc(OC(=O)c2ccc(Br)o2)cc1 [compound 45] | < 10 µM | – | – | 25 to 100 µM | –
Nc1nc2ccccc2[nH]1 [compound 46] | 25 to 100 µM | No activity | – | – | –
N=C(N)c1ccc(N)cc1 [compound 47] | 25 to 100 µM | No activity | – | – | –
CN(C(=O)c1cc2ccccc2cc1C(=O)C(c1cccc2ccccc12)P(=O)(O)O)C1CCN(C(=O)c2ccccc2)CC1 (centres unmarked) [compound 51] | 10 to 25 µM | No activity | – | – | –
N=C(N)c1ccc2ccccc2c1 [compound 53] | < 10 µM | – | – | 10 to 25 µM | –
MeO-Suc-Ala-Ala-ProboroPhe-OH | – | – | – | – | 0.00016 µM
